Measurements published in patent publication US6596498B1, “Bone stimulating factor” (Osteopharm Inc., priority 1993, dated 2003).
“Also recorded” adds a separate entry of the source. Ends that are not written are not given here.

Experiments:
[1] = 24 mg/kg of body weight intravenously, rat; serum level by bioassay; cited from earlier work
[2] = system: parathyroidectomized rats; experiment: Histological evaluation of selected tissues for toxic lesions after miniosmotic pump implantation; format: in vivo, rat; conditions: about 25 μg per day by miniosmotic pump, about 31 days
Experimental: A miniosmotic pump (Alzet) was loaded with about 1.5 ml of the chemically synthesized peptide having an N-terminal acetyl group (SEQ ID NO:12) in 0.1% acetic acid so as to give a calculated daily delivery of about 25 μg per day. A pump was implanted under the subcutaneous fascia of the dorsal aspect of the left side of the thorax of five rats which had been parathyroidectomized seven days earlier. Five similarly parathyroidectomized rats received similar implants containing only 0.1% acetic acid. Five intact rats were also used as controls.
Histological evaluation of selected tissues of the five rats of each of the groups indicated in Table Four were carried out microscopically.

ovariectomized rats [3] = experiment: Autopsy of ovariectomized rats after daily peptide injection; format: in vivo, rat; conditions: 100 μg s.c. daily for eight weeks
Experimental: The six ovariectomized rats were injected subcutaneously with 100 μl of a 0.1% acetic acid solution containing 100 μg of the chemically synthesized peptide (SEQ ID NO:11) every 24 hours for 28 days. […] Postmortem blood was taken by cardiac puncture and serum frozen until analyzed. A full autopsy was performed on each rat. […] Eight weeks after ovariectomization, five ovariectomized rats were injected subcutaneously with 100 μl of a 0.1% acetic acid solution containing 100 μg of the chemically synthesized peptide in which the N-terminal amino group was modified with an acetyl group (SEQ ID NO:12). This was done every 24 hours for eight weeks. […] Postmortem blood was taken by cardiac puncture and serum frozen until analyzed. An autopsy was performed on each rat.

intact rats [4] = experiment: Bone mineral apposition rate by tetracycline labelling in intact rats; format: in vivo, rat
intact rats [5] = experiment: as above; format: in vivo, rat; remark: listed apart in the source
Excerpt: Tetracycline is excited by long UV light (i.e., with a range close to the blue range) and a bright yellow fluorescence is emitted, which fluorescence is detectable in bone sections viewed with a fluorescence microscope. Tetracycline labels a bone surface when a newly formed collagen matrix begins to incorporate calcium and when such surface is sectioned, the tetracycline appears as a yellow fluorescent band. A subsequently administered dose of tetracycline appears as a second band located superficial to the first band. The distance between the two bands represent the thickness of bone matrix formed in the interval between the two doses. The rate of bone deposition can be calculated by dividing the distance with the time interval between doses. Errors can be introduced by cuts which are not perpendicular to the growing bone surface. To reduce this error, only sites in which the two bands were distinct and parallel to each other were used. Measurements made on 10 randomly chosen sites fulfilling this requirement were chosen to give readings close to the arithmetic mean of the rate.
The measuring system used was a Leitz scanning light microscope photometer MPV-CD with a UV source being provided by a 100 W stabilized mercury burner. Sections were generally magnified using 16× objective using a moving scanning slit, the intensity of the fluorescent band was amplified and recorded. The light signal was transformed into digital output and the profile of the tetracycline intensity recorded. The instrument carries a mechanical error of less than 5%. The distance measured was periodically calibrated with a microscopic grid and a good correlation was found, as shown in FIG. 2.
Intact 400-420 g male rats were used for testing. A control group received the carrier buffer of 50 mM sodium phosphate (pH 7.2). […]
The unstained plastic embedded sections were viewed under a fluorescence microscope with a ×16 objective and ×10 eyepieces systematically to cover the trabecular bone in the space enclosed by the endosteal surface. […]

ovariectomized rats [6] = experiment: Bone mineral apposition rate in ovariectomized rats; format: in vivo, rat; conditions: 100 μg s.c. every 24 hours for 28 days; lower metaphysis of left femur; untreated OVX 0.59, sham 0.85, intact 0.86
Experimental: Ovariectomies were performed on six female Sprague-Dawley rats, each sedated with 1 mg of sodium barbiturate I.P. Sham operations were carried out a second group of six rats. The rats were given two weeks to recover from the operations. The six ovariectomized rats were injected subcutaneously with 100 μl of a 0.1% acetic acid solution containing 100 μg of the chemically synthesized peptide (SEQ ID NO:11) every 24 hours for 28 days. […] A second group of six ovariectomized rats, was similarly treated with a 0.1% acetic acid solution containing no peptide over the same 28 day period. A third group of six rats, each of which had undergone the sham operation, was similarly treated with a 0.1% acetic acid solution containing no peptide over the same 28 day period. A fourth group of six intact rats was similarly treated with a 0.1% acetic acid solution containing no peptide over the same 28 day period. The bone mineral apposition rate was determined, as described previously, by measurement of the lower metaphysis of the left femur. The results are tabulated in Table Six and graphically depicted in FIG. 25.

ovariectomized rats [7] = experiment: Right femoral bone calcium density of ovariectomized rats; format: in vivo, rat
Experimental: Ovariectomies were performed on six female Sprague-Dawley rats, each sedated with 1 mg of sodium barbiturate I.P. Sham operations were carried out a second group of six rats. The rats were given two weeks to recover from the operations. The six ovariectomized rats were injected subcutaneously with 100 μl of a 0.1% acetic acid solution containing 100 μg of the chemically synthesized peptide (SEQ ID NO:11) every 24 hours for 28 days. […] The right femur of each rat was decalcified separately. The decalcification fluid consisted of 10% formic acid (v/v) and 5% sodium citrate (w/v) at pH 3.0. Each bone was placed in 6 ml of the decalcification fluid. The fluid was […] days, again after another 4 days, again after another 2 days, and again after another 3 days. After another 2 days, the decalcification fluid was removed and replaced by deionized water, and the sample agitated for 2 days. The water changed after two days and again after another day. […] The volume of each right femur was determined by determining the volume of water displaced when the bone was immersed in water. The calcium concentration of each sample was determined according to standard methods and the calcium density of each bone calculated. […] The right femurs were decalcified and calcium density determined as before.

[8] = 0.1 ml of 1 mg per ml solution, subcutaneous, right thigh, lower metaphysis of right femur, control 1.02

CN(C)[C@@H]1C(O)=C(C(N)=O)C(=O)[C@@]2(O)C(O)=C3C(=O)c4c(O)cccc4[C@@](C)(O)[C@H]3C[C@@H]12 [tetracycline]
clearance from the circulation [1]: cleared from the circulation within half an hour

Ac-GIGKRTNEHTADCKIKPNTLHKKAAETLMVLDQNQP [SEQ ID NO:12]
histological evaluation of selected tissues (toxic lesions) [2]: No evidence of toxic lesions was found | pathology at autopsy (ovariectomized rats [3]): No obvious pathology was observed

GIGKRTNEHTADAKIKPNTLHKKAAETLMVLDQNQP [SEQ ID NO:13]
bone apposition rate (intact rats [4]; 0.1 ml of 1 mg per ml solution s.c., compared with control and normal peptide): significantly greater than that for those of the control group but below the bone apposition rate shown for the rats injected with the normal peptide | bone mineral apposition rate, Mean (intact rats [4]; [8]): 1.35 μm/d

GIGKRTNEHTADCKIKPNTLHKKAAETLMVLDQNQP [SEQ ID NO:11]
bone apposition rate, Mean (intact rats [5]; 25 μg in 1 ml, single intramuscular injection, lower metaphysis of right femur, vehicle control 1.03): 1.35 μm/d | bone mineral apposition rate, Mean (intact rats [5]; 25 μg single intramuscular injection, lower femoral epiphysis, control 0.85): 1.05 μm/day | bone mineral apposition rate, Mean (ovariectomized rats [6]): 0.90 μm/day | bone calcium concentration (ovariectomized rats [7]; 100 μg s.c. daily for 28 days, ovariectomized rats): appears to be normal | Right Femoral Calcium Concentration, Mean (ovariectomized rats [7]; 100 μg s.c. every 24 hours for 28 days, starting two weeks after ovariectomy, untreated OVX 6.61, sham 7.45, intact 7.69): 7.57 µmol/mL | bone mineral apposition rate, Mean (intact rats [4]; 50 μg single intramuscular injection, lower femoral epiphysis, control 0.85): 1.15 μm/day | bone mineral apposition rate, Mean (intact rats [4]; 100 μg single intramuscular injection, lower femoral epiphysis, control 0.85): 1.32 μm/day | bone mineral apposition rate, Mean (intact rats [4]; [8]): 1.67 μm/d | dose dependency of stimulant effect (intact rats [4]; 25-100 μg, intramuscular): increases with the amount of peptide administered

expressed polypeptide: human polypeptide (SEQ ID NO:11 sequence) expressed in E. coli JM 103 from pUC 8 plasmid, purified by C3 HPLC (GIGKRTNEHTADCKIKPNTLHKKAAETLMVLDQNQP)
effect on bone formation (intact rats [5]; 0.7 and 0.3 O.D. (280 nm) units injected, intact 400-420 g male rats vs carrier buffer): appears to have a stimulant effect on bone formation; also recorded: showed biological activity
